The results in this text go back to patent EP0217621A2, “Macromolecular tumor cell growth-inhibiting antibiotic” (SMITHKLINE BECKMAN CORPORATION, priority 1985, dated 1987).

The subject of one data set is ADJ-PC6 Plasmacytoma. Nature of the data set: in vivo ADJ-PC6 Plasmacytoma tumor model. Details: species or system BALB/c female mice. As for the experimental part:
Likewise, AAC-345, in the form of the crude broth of ATCC 53270 and the purified active component of ATCC 53270, was tested in an additional in vivo tumor model known as ADJ-PC6 Plasmacytoma according to the following assay [see Cleare et al., J. Biochimie, 60, 830-850 (1978)]: • Tumor cells are carried by serial sc passage in BALB/c female mice and then collected aseptically on ca. Day 21 and minced in Hank's balanced salt solution. The cells are then dispersed by homogenizer, and cell concentration is adjusted to 4×10^6 viable (trypan blue-excluding) cells per ml by hemocytometer counts. A total of 0.5 ml (2x10^6 cells) is implanted sc on the right flank of BALB/c female mice in groups of 8. Treatment is given ip on Days 1-10, and tumors are measured in perpendicular diameters with a vernier caliper approximately three (3) weeks after tumor implantation (Days 18-21). Generally, > 75% inhibition of tumor growth reflects significant antitumor effect.

The subject of another data set is P388 leukemia. As to the kind of experiment: in vivo ip P388 leukemia mouse model. Details: species or system B6D2F1 mice. The conditions noted are these: positive control, 1 mg/kg/day. From the text:
P388 lymphocytic leukemia is currently the most widely used animal tumor model for screening for antitumor agents and for detailed evaluation of active compounds. This tumor system is widely accepted as an antitumor agent screening tool because it is sensitive to virtually all of the clinically active antineoplastic agents; quantitative and reproducible: amenable for large-scale screening; and predictive for activity in other animal tumor models. […] Rpts. (Part III), 3, 1-103 (1972)]: • 10^6 P388 leukemia cells are inoculated ip in B6D2F1 mice. Twenty-four hours later, if the tumor inoculum proves to be free of bacterial contamination (as determined by 24 hours incubation in thioglycollate broth), animals are randomized into groups of 6 and housed in shoebox cages. The purified active component of ATCC 53270 was dissolved in 0.9 percent NaCl solution (normal saline) at an appropriate concentration so that the desired dose was delivered in a volume of 0.5 ml. The crude broth of ATCC 53270 was administered undiluted or diluted with normal saline. Such saline solutions were stored in amber bottles at 4°C. The saline solution of the purified active component of ATCC 53270, saline solution of the crude broth of ATCC 53270 or undiluted crude broth of ATCC 53270 are administered ip on Days 1 through 5 (i.e. treatment is initiated 24 hrs after tumor inoculation). […] Animals are weighed as a group on Days 1, 5 and 9 and average weight change (δ wt.) is used as a reflection of toxicity. Each experiment also includes an inoculum titration -- groups of 8 mice inoculated ip with 10^5 to 10^0 P388 leukemia cells. The titration is used to calculate cell kill achieved by treatment with drugs. Animals are monitored daily for mortality and experiments are terminated after 45 days. The endpoint is median survival time (MST) and increase in lifespan (ILS) which is the percentage of increase in MST relative to untreated controls. Untreated controls inoculated ip with 10^6 P388 leukemia cells generally survive for a median of 9 to 11 days. A drug is considered active if it produces > 25 percent ILS.

Each structure is given as a SMILES string.

With `N.N.[Cl][Pt][Cl]` [Cisplatin], the “TGI (percent of tumor growth inhibition)” value in the data set on ADJ-PC6 Plasmacytoma (Experiment I, 3 mg/kg/day ip Days 1-10, Day 21) amounted to 100%. Besides, the “Mean Tumor Volume” value in the data set on ADJ-PC6 Plasmacytoma (Experiment I, 3 mg/kg/day ip Days 1-10, measured Day 21) worked out at 0 ± 0 mm^3. Also, the tumor growth inhibition result in the data set on ADJ-PC6 Plasmacytoma (positive control, general statement in the method) was “complete tumor growth inhibition”. For the same compound, in the data set on P388 leukemia (Experiment I), the “ILS (increase in lifespan)” value was determined as 117%, the “Median Survival Time” value came out at 19.5 days, the “Weight Change Day 5” value was -0.2 gm and the “Weight Change Day 9” value was “+1.4 gm”. Further, in the data set on P388 leukemia (Experiment II), the “ILS (increase in lifespan)” value is 89%, the “Median Survival Time” value worked out at 17 days, the “Weight Change Day 5” value was -0.6 gm and the “Weight Change Day 9” value is recorded as “+1.2 gm”.
